According to US20210222123A1, “IN VITRO EXPANSION OF DOPAMINERGIC SUBTYPE NEURONAL PROGENITORS DERIVED FROM PLURIPOTENT STEM CELLS” (Wisconsin Alumni Research Foundation, priority 2019, published 2021):
Like-named read-outs stand apart in the source and are kept apart here.

Legend:
DA NPCs [1] = format: cell-based
Source text: FGF8 and SHH are not sufficient for expanding DA NPCs: To determine if and how the DA NPCs can be expanded, a CKK8-based assay for quantifying cell numbers was first established. This assay was based on the absorbance readout from a plate reader to estimate the total cell number by monitoring mitochondrial activity, which was used for primary screening/testing for candidate molecules and validating the hits (FIG. 2A).
The optimal seeding density was first determined by plating increasing numbers of DA NPCs to each well. […] The absorbance reached a plateau when the seeding density was beyond 120,000 cell/well (FIG. 2B), and 20,000 cells/well were used for subsequent assays. Using this optimal seeding density (20,000/well), well-to-well and plate-to-plate variation (FIG. 2C) was examined. There were no obvious well-to-well and plate-to-plate variations (FIG. 2C).
Chemical screening identifies an additional compound that expands DA NPCs: The chemical screening platform was set up using FGF8+SHH as a basal condition, FGF8+SHH+DMSO as a control, and FGF8+SHH+1 as the screening mode. With the standardized screening platform (FIG. 3A), 1,200 small molecules (Tocris Total) were screened and the top 5 candidate compounds that increased the absorbance by >2 folds over the median absorbance (FIG. 3B) were identified. […] induced a 5-fold expansion on top of FGF8+SHH (FIG. 3D). We referred to it as the “FSW” cocktail.
Generation and expansion of DA NPCs: DA NPCs were generated as previously described, in particular FGF8b was added from Day 9 (Chen et al., 2016; Xi et al., 2012) (FIG. 1A). The generated DA NPCs were passaged at 10^6 cells/well on a MATRIGEL™ (1:30; PBS diluted and store in 4° C. for use in 2 weeks) coated 6-well plate as the first passage. After overnight, incubation, the medium was switched to the FSCW cocktail in the expansion medium. FSCW cocktail contained FGF8b (50 ng/ml; Peprotech), SHH (25 ng/ml; Peprotech), CHIR (0.6 μM; Tocris) and WNT-C59 (0.5 μM: Tocris). The expansion medium consisted of DF12 basal medium (ThermoFisher), B27 (100×; ThermoFisher), Glutamax (100×; ThermoFisher) and NEAA (100×; ThermoFisher). The cells were passaged every 5 days at the ratio of 1:3. To digest the cells, the cultures were incubated in PBS-diluted EDTA (1:100; Thermo) at 37° C. for 5 minutes before lifting the cells by adding 2 ml DF12 basal medium using cell lifter (Coring) and collecting the cells into a centrifuge tube. Following centrifugation at 1000 rpm for 2 minutes and removal of the supernatant, the cells were resuspended in the expansion medium with FSCW cocktail and seeded onto the coated plates as described above. Y27632 (10 uM; Tocris) was added overnight to improve cell survival.

DA NPCs [2] = experiment: DA NPC identity by immunostaining of DA marker co-expression; format: cell-based, human
Method: Immunostaining and Quantification: Cells on coverslips/wells were rinsed with PBS and fixed in 4% paraformaldehyde for 20 minutes. After rinsing with PBS twice, cells were treated with 0.3% Triton for 10 min followed by 10% donkey serum for 1 hour before incubating with primary antibodies overnight at 4° C. Cells were then incubated for 1 hour at room temperature with fluorescently-conjugated secondary antibodies (Life Technologies). The nuclei were stained with Hoechst (Ho) (Sigma-Aldrich). Images were taken with a Nikon A1R-Si laser-scanning confocal microscope (Nikon, Tokyo, Japan). The primary antibodies used include the followings: Goat anti-OTX2 (1:1000, R&D), Rabbit anti-LMX1A (1:500, Abcam), […], Goat anti-FOXA2 (1:500, Santa Cruz), Mouse anti-EN1 (1:200, 4G11-C, DSHB), Rat anti-Corin (1:100, R&D Systems), Rabbit anti-TH (1:500, Pel-Freez Biologicals), Mouse anti-TUJ1 (1:500, Santa Cruz Biotechnology), Mouse anti-MAP2 (1:200, Sigma-Aldrich), Rabbit anti-GIRK2 (1:80, Alomone Labs), Rabbit anti-SOX6 (1:1000, Sigma-Aldrich), Mouse anti-Stem121 (1:500, Clonetech). For quantifying DA NPC populations, cells were counted among the total Hoechst labeled nuclei. Three independent cultures (n=3) were analyzed.

[3] = FGF2 alone, 10 to 200 ng/ml, one passage in 5 days

## Cc1c[nH]c(-c2cnc(NCCNc3ccc(C#N)cn3)nc2-c2ccc(Cl)cc2Cl)n1 [CHIR, CHIR99021]
DA NPCs [1]; CHIR alone, range of doses
  expansion of DA NPCs: expanded the DA NPCs
DA NPCs [1]; CHIR at a low dose (0.6 μM)
  expansion of DA NPCs: expanded the DA NPCs
DA NPCs [2]; CHIR alone
  dose window in which DA NPC identity (co-expression of LMX1A and OTX2) was retained: 0.6 µM
DA NPCs [2]; CHIR alone, concentrations lower or higher than 0.6 μM
  DA identity: loss of DA identity
DA NPCs [2]; CHIR at a low dose (0.6 μM)
  cellular identity of DA NPCs: did not alter their cellular identity

## Cc1cc(-c2ccc(CC(=O)Nc3ccc(-c4cccnc4)cc3)cc2)ccn1 [WNT-C59]
DA NPCs [1]; WNT-C59 "At 2" (unit not given), FSW cocktail
  expansion on top of FGF8+SHH: 5 fold
DA NPCs [1]; WNT-C59 titration in FSCW cocktail
  concentration of maximum effect in the cocktail: 0.5 µM
DA NPCs [2]; on top of FGF8+SHH, 1 passage, 5 days, ratio 1:3
  DA identity after induced expansion (co-expression of LMX1A and OTX2): maintained DA identity

## FGF2: growth factor reported for expanding pan-NPCs or specified NPCs
DA NPCs [1]; [3]
  cell proliferation: induced dramatic cell proliferation
DA NPCs [2]; [3]
  DA NPC identity (co-expression of LMX1A and OTX2): loss of co-expression of LMX1A and OTX2
